Columns and labels:
[1] = free C8 fatty acid; cited from earlier work
[2] = NMR chemical shift titration with DPC-d38; format: binding; settings: pH 5.0, 1.0 mM octanoic acid or 1.14 mM ghrelin

unitary Gibbs free energy ΔGu0 of binding to DPC micelles [2]: -8.6 kcal/mol
Structure (SMILES): CCCCCCCC(=O)O [octanoic acid]
free energy for the transfer from aqueous into a hydrophobic environment [1]: -1.5 kcal/mol

— PMC3038380 (Bioorganic & Medicinal Chemistry, 2010)
